From US20240116985A1, “STAPLED PEPTIDES AND METHODS THEREOF” (priority 2020, published 2024)
≈ marks a conversion by molar mass, not a printed value. Starred links: 1 amine or outer side, 2 acyl side, 3 side chain; linkers in the order of their positions; H or OH if unused. Non-standard residues stand in square brackets, D forms with d. Residues, ends and D or L forms follow the SMILES beside them. X2 = C=CCCCC(CCCC=C)(N[*:1])C(=O)[*:2]; Bta = N[C@@H](Cc1csc2ccccc12)C(=O)O; αAllylPro = C=CC[C@@]1(C(=O)O)CCCN1; S8 = C=CCCCCCC[C@](C)(N)C(=O)O

How the values were obtained:
CHI Log D procedure = type: physicochemical; conditions: for CHI Log D: pH 7.4
Solubility in PBS = type: physicochemical
How it was run: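 Solubility is derived from HPLC peak areas: the ratio of the PBS supernatant peak to a 50 μM DMSO peptide peak, times 50 uM.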

logD (CHI Log D procedure; pH 7.4, CHI Log D)	Solubility (Solubility in PBS) [µM]	chromatographic logD (CHI Log D procedure; pH 7.4, CHI Log D)	solubility at 15 min (Solubility in PBS; Solubility (uM)) [µM]	CHI Log D (CHI Log D procedure)	Compound
2.35	50 (≈ 104 µg/mL)				CC(=O)N1CCC[C@]12CC=CCCCC1(CCCC=CCCCCCC[C@@](C)(C(=O)N[C@@H](Cc3ccsc3)C(=O)N[C@@H](Cc3csc4ccccc34)C(=O)N[C@@H](CCC(N)=O)C(=O)N[C@@H](C)C(=O)N[C@@H](C)C(=O)N[C@H](C)C(N)=O)NC(=O)[C@H](CC(N)=O)NC(=O)[C@H](Cc3ccccc3)NC(=O)[C@H](C)NC(=O)[C@H](C)NC(=O)[C@H](CC(=O)O)NC(=O)[C@H](CC(=O)O)NC1=O)NC(=O)[C@H](CC(C)(C)C)NC(=O)[C@H](CC(=O)O)NC2=O (stereo partly drawn) [I-877, Ac-PL3-Asp-Npg-B5-Asp-Asp-Ala-Ala-Phe-Asn-S8-3Thi-BztA-Gln-Ala-Ala]
		2.87	49 (≈ 92.3 µg/mL)		CC[C@H](C)[C@@H]1NC(=O)[C@H](Cc2ccccc2)NC(=O)[C@]2(CC=CCCCC3(CCCC=CCCCCCC[C@@](C)(C(=O)N[C@@H](Cc4ccccc4)C(=O)N[C@@H](Cc4csc5ccccc45)C(=O)N[C@@H](CCC(N)=O)C(N)=O)NC(=O)[C@H](CCC(N)=O)NC(=O)[C@H](CC(=O)O)NC(=O)[C@H](C)NC(=O)[C@H](C)NC(=O)[C@H](CCC(=O)O)NC(=O)[C@H](CC(=O)O)NC3=O)NC1=O)CCCN2C(C)=O (stereo partly drawn) [I-588, Ac-PL3-Phe-Ile-B5-Asp-Glu-Ala-Ala-Asp-Gln-S8-Phe-BztA-Gln-NH2]
	50 (≈ 93.8 µg/mL)			2.854	CC(=O)N1CCC[C@]12CC=CCCCC1(CCCC=CCCCCCC[C@@](C)(C(=O)N[C@@H](Cc3ccccc3)C(=O)N[C@@H](Cc3csc4ccccc34)C(=O)N[C@@H](CCC(N)=O)C(N)=O)NC(=O)[C@H](CC(N)=O)NC(=O)[C@H](Cc3ccccc3)NC(=O)[C@H](C)NC(=O)[C@H](C)NC(=O)[C@H](CCC(=O)O)NC(=O)[C@H](CNS(C)(=O)=O)NC1=O)NC(=O)[C@H](C)NC(=O)[C@H](CC(=O)O)NC2=O (stereo partly drawn) [I-529, Ac-PL3-Asp-Ala-B5-[MeSO2]Dap-Glu-Ala-Ala-Phe-Asn-S8-Phe-BztA-Gln-NH2]
	29 (≈ 53 µg/mL)			2.6	CC(=O)N1CCC[C@]12CC=CCCCC1(CCCC=CCCCCCC[C@@](C)(C(=O)N[C@@H](Cc3ccccc3)C(=O)N[C@@H](Cc3csc4ccccc34)C(=O)N[C@@H](CCC(N)=O)C(N)=O)NC(=O)[C@H](CCC(N)=O)NC(=O)[C@H](Cc3ccccc3)NC(=O)[C@H](C)NC(=O)[C@H](C)NC(=O)[C@H](CCC(=O)O)NC(=O)[C@H](CCO)NC1=O)NC(=O)[C@H](C)NC(=O)[C@H](CC(=O)O)NC2=O (stereo partly drawn) [I-497, Ac-PL3-Asp-Ala-B5-Hse-Glu-Ala-Ala-Phe-Gln-S8-Phe-BztA-Gln-NH2]
	45 (≈ 83.8 µg/mL)			1.863	C=CC(=O)NC[C@H](NC(=O)[C@]1(C)CCCCCCC=CCCCC2(CCCC=CC[C@]3(CCCN3C(C)=O)C(=O)N[C@@H](CC(=O)O)C(=O)N[C@@H]([C@@H](C)CC)C(=O)N2)C(=O)N[C@@H](CC(=O)O)C(=O)N[C@@H](CC(=O)O)C(=O)N[C@@H](C)C(=O)N[C@@H](C)C(=O)N[C@@H](Cc2ccccc2)C(=O)N[C@@H](CCC(N)=O)C(=O)N1)C(=O)N[C@@H](Cc1csc2ccccc12)C(=O)N[C@@H](CCC(N)=O)C(N)=O (stereo partly drawn) [I-484, Ac-PL3-Asp-Ile-B5-Asp-Asp-Ala-Ala-Phe-Gln-S8-[Acryl]Dap-BztA-Gln-NH2]
	50 (≈ 94.2 µg/mL)	2.26			C=CCCCCCC[C@](C)(NC(=O)[C@H](CCC(N)=O)NC(=O)[C@H](Cc1ccccc1)NC(=O)[C@H](C)NC(=O)[C@H](C)NC(=O)[C@H](CC(=O)O)NC(=O)[C@H](CC(=O)O)NC(=O)C(CCCC=C)(CCCC=C)NC(=O)[C@H](C)NC(=O)[C@H](CC(=O)O)NC(=O)[C@]1(CC=C)CCCN1C(C)=O)C(=O)N[C@@H](Cc1ccccc1)C(=O)N[C@@H](Cc1csc2ccccc12)C(=O)N[C@@H](CCC(N)=O)C(N)=O [I-578, Ac-PL3-Asp-Ala-B5-Asp-Asp-Ala-Ala-Phe-Gln-S8-Phe-BztA-Gln-NH2] (Ac-[αAllylPro]DA[X2]DDAAFQ[S8]F[Bta]Q-NH2)
